# Data reported in patent publication US10875890B2, “Peptide inhibitors targeting the Neisseria gonorrhoeae pivotal anaerobic respiration factor AniA” (priority 2017, dated 2020).
# Where two headings read alike, the source gives them in different places. Where a SMILES comes first, the peptide text is derived from it. The star is where a group is joined. Biotin = O=C1N[C@H]2[C@H](CS[C@H]2CCCCC(=O)*)N1; Ahx = NCCCCCC(=O)O
# Key:
# sAniA [1] = target: sAniA (Neisseria gonorrhoeae, UniProt Q02219); test: biochemical
# Experimental: Biolayer Interferometry. […] Streptavidin (SA) biosensors (ForteBio) were loaded with C7-3Bio peptides for 10 min. Unloaded tips were used as a control. The sAniA samples were prepared in Kinetic Buffer in concentrations of 50, 100, 500, and 1000 nM. The baseline was established for 240 s and the association and dissociation steps were performed for 500 s. Experiments were performed in three biological replicates with the curve fitting using 2:1 (Heterogeneous Ligand) model and KD value calculations were completed using Octet Data Analysis (version 9).
# [2] = target: T1, sAniA (recombinant AniA nitrite reductase) (Neisseria gonorrhoeae, UniProt Q02219); test: Inhibition of nitrite reductase activity of purified sAniA (fluorometric DAN nitrite assay); type: biochemical
# T1 construct: wild type protein which lacks the N-terminal palmitoylation signal, sAniA; 6xHis (C); made in house; host or cells: Escherichia coli BL21(DE3)
# Experimental: (§1) Measurements of Nitrite Reductase Activity with Purified AniA Variants. Enzymatic activity assessments with sAniA and AniA D137A H280A were performed based upon previous work (Boulanger and Murphy 2002, J Mol Biol 315:1111-27; Kakutani et al. 1981, J Biochem 89:463-72) but using a highly sensitive fluorometric assay for nitrite measurements that relies on the reaction of nitrite with 2,3-diaminonapthalene (DAN) to form the fluorescent product, 1-(H)-naphtothriazole (Misko et al. 1993, Anal Biochem 214:11-6). All reactions were conducted under anoxic or microoxic conditions. Fluorescence was measured at excitation of 360/40 nm and emission of 460/40 nm at a gain of 50 using a Synergy HT Plate Reader (BioTek). The sAniA and AniA D137AH280A activities are expressed as the mean reaction rate (nmoles of nitrite reduced/min/[…]) from at least ten independent experiments over the course of a nitrite utilization assay (Shewell et al. 2013, Biochem Biophys Res Commun 431:215-20).
# (§2) Determination of Peptides Inhibitory Concentrations Required to Reduce the Signal by 50% (IC50s). […] Nitrite measurements with DAN were performed as described above after pre-incubation of samples for 1 h at room temperature. Control reactions consisted of sAniA alone and AniA D137A H280A treated in the same manner as the experimental samples. Reactions were performed in at least twelve independent experiments. Percent inhibition was calculated using the formula % I=100*(1−(x−y)/(z−y)) where “x”, “y” and “z” are the concentrations of nitrite in samples containing sAniA incubated with synthetic peptides, AniA D137A H280A and sAniA, respectively. The data were analyzed with a nonlinear log(inhibitor) vs. response—variable slope (four parameters) curve-fitting technique (GraphPad) to obtain […]. All experiments were performed in at least ten independent trials.
# [3] = tested on: AniA nitrite reductase activity of intact N. gonorrhoeae FA1090 ΔaniA/PlacaniA cells; type: cell-based, Neisseria gonorrhoeae; details: for Inhibition of nitrite reductase activity of intact gonococci: FA1090 ΔaniA/PlacaniA
# Experimental: Whole Cell Nitrite Utilization Studies. The FA1090 ΔaniA/Plac::aniA and ΔaniA/Plac::D137AH280A were grown to OD600˜1.0, gently spun down, decanted and re-suspended in GCBL. […] Subsequently, 0.1 mM sodium nitrite was added and the samples were transferred into an anaerobic chamber. After 1 h, nitrite consumption was measured using Griess Reagent (Biotium) as previously described for N. gonorrhoeae nitrite reductase whole cell assay (Shewell et al. 2013, Biochem Biophys Res Commun 431:215-20). Absorbance values were measured at OD545 using a Synergy HT plate reader and nitrite concentration was assessed against a nitrite standard prepared in GCBL. Percent inhibition was calculated using the formula % 1=100*(1−(x−y)/(z−y)) where “x”, “y” and “z” are the concentrations of nitrite in samples containing FA1090 ΔaniA/PlacaniA incubated with synthetic peptides, ΔaniA/PlacaniA D137A H280A and ΔaniA/PlacaniA, respectively. Experiments were performed on at least three separate occasions and mean with SEM are reported.
# [4] = target: T2, sAniA (recombinant AniA nitrite reductase) (Neisseria gonorrhoeae, UniProt Q02219); test: Inhibition of nitrite reductase activity of purified sAniA (fluorometric DAN nitrite assay); type: biochemical; details: peptide 0 to 100 μM, DAN nitrite consumption assay
# T2 construct: wild type protein which lacks the N-terminal palmitoylation signal, sAniA; 6xHis (C); made in house; host or cells: Escherichia coli BL21(DE3)
# T2 sequence (Q02219 whole entry, looked up): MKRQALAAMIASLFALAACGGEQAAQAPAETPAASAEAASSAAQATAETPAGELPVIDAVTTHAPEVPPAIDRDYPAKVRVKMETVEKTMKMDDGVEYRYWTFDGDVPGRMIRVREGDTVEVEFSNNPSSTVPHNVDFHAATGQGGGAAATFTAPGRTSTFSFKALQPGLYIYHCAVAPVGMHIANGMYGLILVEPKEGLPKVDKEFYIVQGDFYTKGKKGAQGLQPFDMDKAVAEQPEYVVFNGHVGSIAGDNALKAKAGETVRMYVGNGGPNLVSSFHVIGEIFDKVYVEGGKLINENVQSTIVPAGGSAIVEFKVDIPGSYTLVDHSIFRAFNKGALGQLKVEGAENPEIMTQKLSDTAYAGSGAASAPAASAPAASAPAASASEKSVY
# Experimental: as §1, §2
# sAniA [5] = target: T3, sAniA (Neisseria gonorrhoeae, UniProt Q02219); test: Phage ELISA of phage-displayed peptides on sAniA-coated wells; type: binding; details: 10^10 PFU per well, absorbance at 450 nm
# T3 construct: wild type protein which lacks the N-terminal palmitoylation signal, sAniA; 6xHis (C); made in house; host or cells: Escherichia coli BL21(DE3)
# T3 sequence (Q02219 whole entry, looked up): T2 sequence (Q02219 whole entry, looked up)
# Experimental: Phage Enzyme-linked Immunosorbent Assay (Phage ELISA). Individual wells in 96-well transparent plates (Greiner-Bio) were coated with 100 μL of 100 μg/mL of sAniA suspended in 0.1 M NaHCO3pH 8.6 and incubated overnight at 4° C. in an airtight humidified box. After incubation, excess target solution was shaken out and wells were filled with 300 μL of blocking buffer (0.1 M NaHCO3pH 8.6, 5 mg/mL BSA). Following 2 h incubation at 4° C., blocking buffer was removed and wells were washed six times with 200 μL of TBST (50 mM Tris-HCl pH 8.6, 150 mM NaCl, 0.5% Tween). Isolated individual phage amplifications (10^10 PFU) in 100 μl of TBST were incubated at room temperature for 1 h with rocking. All wells were then cleared by shaking and washed six times with 200 μL of TBST. A solution containing Anti-M13 HRP linked-Monoclonal Antibodies (NEB) (1:5,000 dilution in blocking buffer) was distributed at 200 μL per well and incubated with rocking at room temperature for 1 h. Wells were washed six times with TBST and incubated with Turbo TMB-ELISA for 30 min with rocking at room temperature. To stop the reaction, finally 100 μL of 1.78 M H2SO4 was added to each well. […] Data from seven independent experiments are shown with mean and SEM
Compound,Kd (sAniA [1]) [nM],IC50 [2] [µM],Inhibition of nitrite reductase activity of intact gonococci ([3]; 0.6 mM peptide) [%],further results
CC(C)C[C@H](NC(=O)[C@H](CC(N)=O)NC(=O)[C@H](CC(C)C)NC(=O)[C@H](CCCNC(=N)N)NC(=O)[C@H](CS)NC(=O)[C@H](Cc1ccc(O)cc1)NC(=O)[C@H](CC(N)=O)NC(=O)[C@H](CS)NC(=O)[C@H](C)NC(=O)CCCCCNC(=O)CCCC[C@@H]1SC[C@@H]2NC(=O)N[C@@H]21)C(=O)N[C@@H](Cc1c[nH]c2ccccc12)C(=O)NCC(=O)NCC(=O)NCC(=O)N[C@@H](CO)C(N)=O [C7-3Bio] ({Biotin-Ahx}-ACNYCRLNLWGGGS-NH2),775 ± 88.5,,,
CC(C)C[C@H](NC(=O)[C@H](CC(N)=O)NC(=O)[C@H](CC(C)C)NC(=O)[C@H](CCCNC(=N)N)NC(=O)[C@H](CS)NC(=O)[C@H](Cc1ccccc1)NC(=O)[C@H](CC(N)=O)NC(=O)[C@H](CS)NC(=O)[C@H](C)N)C(=O)N[C@@H](Cc1c[nH]c2ccccc12)C(=O)NCC(=O)NCC(=O)NCC(=O)N[C@@H](CO)C(N)=O [C7-3P] (H-ACNFCRLNLWGGGS-NH2),,> 105,,
CC(C)C[C@H](NC(=O)[C@H](CC(N)=O)NC(=O)[C@H](CC(C)C)NC(=O)[C@H](CCCNC(=N)N)NC(=O)[C@H](CS)NC(=O)[C@H](Cc1ccc(O)cc1)NC(=O)[C@H](CC(N)=O)NC(=O)[C@H](CS)NC(=O)[C@H](C)N)C(=O)N[C@@H](Cc1c[nH]c2ccccc12)C(=O)NCC(=O)NCC(=O)NCC(=O)N[C@@H](CO)C(N)=O [C7-3] (H-ACNYCRLNLWGGGS-NH2),775 ± 88.5,10.1,50,
CC(C)C[C@H](NC(=O)[C@H](CC(N)=O)NC(=O)[C@H](CC(C)C)NC(=O)[C@H](CCCNC(=N)N)NC(=O)[C@H](CS)NC(=O)[C@H](Cc1ccc(O)cc1)NC(=O)[C@H](CO)NC(=O)[C@H](CS)NC(=O)[C@H](C)N)C(=O)N[C@@H](Cc1c[nH]c2ccccc12)C(=O)NCC(=O)NCC(=O)NCC(=O)N[C@@H](CO)C(N)=O [C7-3mod2] (H-ACSYCRLNLWGGGS-NH2),,,90,Inhibition of nitrite reductase activity of intact gonococci ([3]; 0.3 mM peptide): 50%
H-ACNYSRLNLWGGGS-NH2 [C7-3mod1],,,,"Inhibition of AniA in intact gonococci (in words) ([3]; 0.15-0.6 mM tested, concentration not given): inhibited AniA moderately"
"H-KHYYGGDTTTLWGGGS-NH2 [12-5, synthetic version of the dodecameric phage-display hit 12-5]",,,,"Influence on AniA enzymatic activity (in words) [4]: did not influence AniA enzymatic activity; Effect on AniA activity of intact gonococci (in words) ([3]; highest tested concentration, 0.6 mM): no effect; Relative binding of phage-displayed peptide to sAniA (in words) (sAniA [5]): best binding"
